Assay results from patent EP4578861A1, “NOVEL TRICYCLIC HETEROCYCLIC CARBALDEHYDE COMPOUND AND PHARMACEUTICAL COMPOSITION, CONTAINING SAME, FOR IRE1ALPHA INHIBITION” (Hanmi Pharm. Co., Ltd., priority 2022, dated 2024).

Each compound was assayed on spliced XBP1 (assay: Spliced XBP1 mRNA measurement test (RT-PCR, tunicamycin-induced ER stress in MCF-7 cells)). Conditions: Homo sapiens, MCF7, compound pre-treated for 1 hour, then 2 µg/mL tunicamycin for 6 or 24 hours, spliced XBP1 corrected by total XBP1.
Format: cell-based
Experimental: With respect to these synthetic compounds, reverse transcription polymerase chain reaction (RT-PCR) experiments were conducted on MCF-7 cancer cells to confirm the effect thereof on the mRNA and protein amounts of spliced XBP1, which is the target of IRE endonuclease. A reverse transcription polymerase chain reaction is a test method in which RNA is extracted from cells, reverse transcriptase is used to make cDNA, and relative mRNA expression level is measured through a polymerase chain reaction.
Briefly, MCF-7 cells were seeded in a 12-well plate and cultured in an incubator including 5% CO2 for one day. On the next day, compounds, which were 10-fold serially diluted from 10,000 nM, were pre-treated for 1 hour, and then, treated with 2 µg/mL tunicamycin for 6 or 24 hours to induce endoplasmic reticulum stress, followed by cell lysis to obtain RNA. RNA was subjected to the procedure of RNeasy Kits (Qiagen, 74106), and 5 µg of RNA sample was dissolved in a sample including reverse transcriptase and dNTP, and reverse transcription reaction was performed with a thermal cycler. The amount of mRNA of each of spliced XBP1 and total XBP1 was measured by a polymerase chain reaction through real time PCR by mixing each cDNA sample with a PCR reaction mixture including a primer pair capable of binding specifically to each target and SYBR green dye. The expression level of spliced XBP1 was corrected by the total expression level of XBP1, and the relative expression levels of spliced XBP1 between samples were compared and analyzed.

Structure (SMILES)	IC50 [µM]
Cc1c(CC(=O)NCCN2CCOCC2)c(=O)oc2c(C=O)c(O)c3c(c12)CCCO3 [Example 29, 2-(5-formyl-6-hydroxy-1-methyl-3-oxo-3,8,9,10-tetrahydropyrano[3,2-f]chromen-2-yl)-N-(2-morpholinoethyl)acetamide]	≥ 0.2
Cc1c(CC(=O)N2CCC(C)CC2)c(=O)oc2c(C=O)c(O)c3c(c12)CCCO3 [Example 4, 6-hydroxy-1-methyl-2-(2-(4-methylpiperidin-1-yl)-2-oxoethyl)-3-oxo-3,8,9,10-tetrahydropyrano[3,2-f]chromene-5-carbaldehyde]	≥ 0.2
CCN(CC)C(=O)Cc1c(C)c2c3c(c(O)c(C=O)c2oc1=O)OCC3 [Example 9, N,N-diethyl-2-(5-formyl-4-hydroxy-9-methyl-7-oxo-1,7-dihydro-2H-furo[3,2-f]chromen-8-yl)acetamide]	< 0.1
Cc1c(CC(=O)N2CCOCC2)c(=O)oc2c(C=O)c(O)c3c(c12)CCCO3 [Example 3, 6-hydroxy-1-methyl-2-(2-morpholino-2-oxoethyl)-3-oxo-3,8,9,10-tetrahydropyrano[3,2-f]chromene-5-carbaldehyde]	< 0.1
Cc1c(CC(=O)N2CCNCC2)c(=O)oc2c(C=O)c(O)c3c(c12)CCCO3 [Example 31, 6-hydroxy-1-methyl-3-oxo-2-(2-oxo-2-(piperazin-1-yl)ethyl)-3,8,9,10-tetrahydropyrano[3,2-f]chromene-5-carbaldehyde]	≥ 0.2
CCNC(=O)Cc1c(C)c2c3c(c(O)c(C=O)c2oc1=O)OCCC3 [Example 17, N-ethyl-2-(5-formyl-6-hydroxy-1-methyl-3-oxo-3,8,9,10-tetrahydropyrano[3,2-f]chromen-2-yl)acetamide]	< 0.1
Cc1c(CC(=O)N2CCC(F)(F)C2)c(=O)oc2c(C=O)c(O)c3c(c12)CCCO3 [Example 10, 2-(2-(3,3-difluoropyrrolidin-1-yl)-2-oxoethyl)-6-hydroxy-1-methyl-3-oxo-3,8,9,10-tetrahydropyrano[3,2-f]chromene-5-carbaldehyde]	< 0.1
